This passage reports IC50 results from patent US10392389B2, “Heterocyclic compounds for the inhibition of PASK” (BioEnergenix, LLC, priority 2012, dated 2019).

Molecules are shown by their SMILES.

T1 sequence (Q96RG2 999-1251 limits assumed): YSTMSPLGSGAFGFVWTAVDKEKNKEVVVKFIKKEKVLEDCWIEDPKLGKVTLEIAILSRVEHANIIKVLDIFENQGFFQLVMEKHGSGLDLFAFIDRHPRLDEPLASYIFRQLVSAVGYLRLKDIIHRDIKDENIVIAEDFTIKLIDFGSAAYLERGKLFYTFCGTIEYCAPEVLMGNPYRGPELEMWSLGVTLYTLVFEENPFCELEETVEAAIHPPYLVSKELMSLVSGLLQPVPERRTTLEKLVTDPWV

This experiment concerns the target T1, PASK (Invitrogen) (Homo sapiens, UniProt Q96RG2).
T1 construct: IC50 Kinase Domain; purchased Invitrogen
The experiment is described as follows: PAS Kinase FRET Assay. Type of experiment: biochemical. Particulars: PAS kinase TR-FRET assay (665 nm/615 nm); read-out: IC50 Kinase Domain. The source says: Biochemical Assay for hPASK Activity
The aim of the FRET assay is to determine the inhibition potential of test compounds on targeted kinase. This assay platform provides a homogenous screening method for measuring kinase activity by quantitating the amount of phospho-substrate in solution following a kinase reaction.
In the presence of kinase and ATP, the Ulight-peptide is phosphorylated and captured by an anti-phospho-substrate antibody, which brings the Eu chelate donor and Ulight acceptor dyes into close proximity. Upon excitation at 340 nm, the Eu chelate transfers its energy to the Ulight dye, resulting in a fluorescent light emission at 665 nm.
Titration of kinase at 1 mM ATP was achieved via the following protocol. After making serial three-fold dilutions of PASK (Invitrogen) in reaction buffer across the plate; 5 μl of kinase dilution and 5 μl substrate/ATP mix were added to the wells of the white Optiplate-384 (PerkinElmer). The contents of the plate were and incubated at RT for 1 h. The reaction was stopped by adding 5 μl of stop solution to each test well followed by mixing and incubation at RT for 10 minutes. 5 μl of detection mix (detection antibody diluted in detection buffer) was added; the contents of the plate were mixed and then incubated in the dark for 1 hour at RT. The signal was recorded at TR-FRET mode (665 nm/615 nm). The results were graphed to calculate the EC50.
Titration of ATP at the EC50 concentration of kinase to determine ATP Km,app. was performed using the following method. After making serial dilutions of ATP (Invitrogen), 5 μl of ATP dilution and 5 μl substrate/kinase mix were added to the wells of the white Optiplate-384 (PerkinElmer). The contents of the plate were and incubated at RT for 1 h. The reaction was stopped by adding 5 μl of stop solution to each test well followed by mixing and incubation at RT for 10 minutes. 5 μl of detection mix (detection antibody diluted in detection buffer) was added; the contents of the plate were mixed and then incubated in the dark for 1 hour at RT. The signal was recorded at TR-FRET mode (665 nm/615 nm). The results were graphed to calculate the EC50 as the ATP Km,app.
Compound screening was done via the following method. 10 mM stock solution of test compound in DMSO was prepared by dissolving test compound in DMSO at RT for 1 hour, and then sonicating at 100% output for 8 minutes. If compound is not soluble under this condition, it was diluted to 3 mM. Kinase reaction buffer was prepared containing 10 mM MgCl2, 50 mM HEPES, 1 mM EGTA, 0.01% TWEEN-20, 2 mM DTT. Serial dilutions of the test compounds were prepared at 4× final assay concentrations using Freedom EVO200® dispensing system as follows: 12×10^−5 M, 4×10^−5 M, 1.33×10^−5 M, 4.44×10^−6 M, 1.48×10^−6 M, 4.92×10^−7 M, 1.65×10^−7 M, […], 1.82×10^−8M, 6.09×10^−9, 2.03×10^−9 M. Test compounds (2.5 μl at 4× the final assay concentration) was added to wells using Freedom EVO200® dispensing system. As a positive control, 2.5 μl of positive compound was added to assay wells, and 2.5 μl of DMSO to assay wells as vehicle control. Kinase solution was prepared in reaction buffer at 2× final assay concentration. Kinase solution (5 μl) was added to each well of the assay plate. The substrate and ATP solution was prepared in kinase reaction buffer at 4× final assay concentration. The kinase reaction was started by adding 2.5 μl of substrate+ATP mix solution to each well of the assay plate. The plate is mixed on a plate shaker; then covered and allowed to react for 2 hours in the dark at 25° C. without shaking. The reaction was stopped by adding 5 μl of stop solution to each test well followed by mixing and incubation at RT for 10 minutes in the dark. 5 μl of detection mix (detection antibody diluted in detection buffer) was added; the contents of the plate were mixed and then incubated in the dark for 1 hour at RT. The signal was recorded at TR-FRET mode (665 nm/615 nm).
Consider `O=c1cc(-c2ccc(Cl)cc2)[nH]c2c(-c3ncco3)cnn12` [Example 48, 5-(4-chlorophenyl)-3-(oxazol-2-yl)pyrazolo[1,5-a]pyrimidin-7(4H)-one], for which the IC50 was at most 10 µM.

For the compound `CCn1nnc2cc(-c3cc(=O)n4ncc(-c5ncco5)c4[nH]3)ccc21` [Example 49, 5-(1-ethyl-1H-benzo[d][1,2,3]triazol-5-yl)-3-(oxazol-2-yl)pyrazolo[1,5-a]pyrimidin-7(4H)-one], the half-maximal inhibitory concentration (IC50) was at most 10 µM.

Turning to `COc1cc(-c2cc(=O)n3ncc(-c4noc5ccccc45)c3[nH]2)ccc1Cl` [Example 50, 3-(benzo[d]isoxazol-3-yl)-5-(4-chloro-3-methoxyphenyl)pyrazolo[1,5-a]pyrimidin-7(4H)-one], the IC50 was at most 10 µM.

Take `COc1cc(-c2cc(=O)n3ncc(-c4cc(C)no4)c3[nH]2)ccc1Cl` [Example 52, 5-(4-chloro-3-methoxyphenyl)-3-(3-methylisoxazol-5-yl)pyrazolo[1,5-a]pyrimidin-7(4H)-one]: the IC50 was at most 10 µM.

`CCn1ncc2cc(-c3cc(=O)n4ncc(-c5ccnn5C)c4[nH]3)ccc21` [Example 53, 5-(1-ethyl-1H-indazol-5-yl)-3-(1-methyl-1H-pyrazol-5-yl)pyrazolo[1,5-a]pyrimidin-7(4H)-one]: the IC50 was at most 10 µM.

As for `O=c1cc(-c2ccc(Cl)c(Cl)c2)[nH]c2c(-c3noc4ccccc34)cnn12` [Example 60, 3-(benzo[d]isoxazol-3-yl)-5-(3,4-dichlorophenyl)pyrazolo[1,5-a]pyrimidin-7(4H)-one], the 50% inhibitory concentration (IC50) is at most 10 µM.

Turning to `Cc1noc(-c2cnn3c(=O)cc(-c4ccc5occc5c4)[nH]c23)n1` [Example 62, 5-(benzofuran-5-yl)-3-(3-methyl-1,2,4-oxadiazol-5-yl)-4H,7H-pyrazolo[1,5-a]pyrimidin-7-one], the IC50 is at most 10 µM.

On to `COc1cc(-c2cc(=O)n3ncc(-c4ncc(-c5ccccc5)o4)c3[nH]2)ccc1Cl` [Example 63, 5-(4-chloro-3-methoxyphenyl)-3-(5-phenyloxazol-2-yl)-4H,7H-pyrazolo[1,5-a]pyrimidin-7-one], for which the IC50 is at most 10 µM.

On to `Cc1csc(-c2cnn3c(=O)cc(-c4ccc5c(cnn5C)c4)[nH]c23)n1` [Example 72, 5-(1-methyl-1H-indazol-5-yl)-3-(4-methylthiazol-2-yl)pyrazolo[1,5-a]pyrimidin-7(4H)-one], for which the concentration for half-maximal inhibition (IC50) is at most 10 µM.

Turning to `N#Cc1cc(-c2cc(=O)n3ncc(-c4ncco4)c3[nH]2)ccc1O` [Example 75, 2-hydroxy-5-(3-(oxazol-2-yl)-7-oxo-4,7-dihydropyrazolo[1,5-a]pyrimidin-5-yl)benzonitrile], the IC50 was at most 10 µM.

In the case of `CC(C)Oc1cc(-c2cc(=O)n3ncc(-c4ccnn4C)c3[nH]2)ccc1Cl` [Example 76, 5-(4-chloro-3-isopropoxyphenyl)-3-(1-methyl-1H-pyrazol-5-yl)pyrazolo[1,5-a]pyrimidin-7(4H)-one], the half-inhibitory concentration (IC50) was at most 10 µM.

Turning to `CCOc1cc(-c2cc(=O)n3ncc(-c4ccnn4C)c3[nH]2)ccc1F` [Example 78, 5-(3-ethoxy-4-fluorophenyl)-3-(1-methyl-1H-pyrazol-5-yl)pyrazolo[1,5-a]pyrimidin-7(4H)-one], the IC50 is at most 10 µM.

As to `CCNC(=O)Cc1cnn2c(=O)cc(-c3ccc(Cl)c(OC)c3)[nH]c12` [Example 80, 2-[5-(4-chloro-3-methoxyphenyl)-7-oxo-4H,7H-pyrazolo[1,5-a]pyrimidin-3-yl]-N-ethylacetamide], the 50% inhibitory concentration (IC50) was at most 10 µM.

Regarding `CNC(=O)Cc1cnn2c(=O)cc(-c3ccc(Cl)c(OC)c3)[nH]c12` [Example 81, 2-(5-(4-chloro-3-methoxyphenyl)-7-oxo-4,7-dihydropyrazolo[1,5-a]pyrimidin-3-yl)-N-methylacetamide], the IC50 is at most 10 µM.

For `CC(C)n1ncc2cc(-c3cc(=O)n4ncc(-c5ccnn5C)c4[nH]3)ccc21` [Example 88, 5-(1-isopropyl-1H-indazol-5-yl)-3-(1-methyl-1H-pyrazol-5-yl)pyrazolo[1,5-a]pyrimidin-7(4H)-one], the IC50 is at most 10 µM.

Consider `Cc1coc(-c2cnn3c(=O)cc(-c4ccc5onc(C)c5c4)[nH]c23)n1` [Example 90, 5-(3-methylbenzo[d]isoxazol-5-yl)-3-(4-methyloxazol-2-yl)pyrazolo[1,5-a]pyrimidin-7(4H)-one], for which the IC50 is at most 10 µM.

Regarding `Cc1noc(-c2cnn3c(=O)cc(-c4ccc(Cl)c(OCC(F)(F)F)c4)[nH]c23)n1` [Example 92, 5-[4-chloro-3-(2,2,2-trifluoroethoxy)phenyl]-3-(3-methyl-1,2,4-oxadiazol-5-yl)-4H,7H-pyrazolo[1,5-a]pyrimidin-7-one], the concentration for half-maximal inhibition (IC50) was at most 10 µM.

Consider `Cc1noc(-c2cnn3c(=O)cc(-c4ccc5c(c4)OCCO5)[nH]c23)n1` [Example 97, 5-(2,3-dihydrobenzo[b][1,4]dioxin-6-yl)-3-(3-methyl-1,2,4-oxadiazol-5-yl)pyrazolo[1,5-a]pyrimidin-7(4H)-one], for which the IC50 was at most 10 µM.

On to `Cc1noc(-c2cnn3c(=O)cc(-c4ccc5c(cnn5C5COC5)c4)[nH]c23)n1` [Example 99, 3-(3-methyl-1,2,4-oxadiazol-5-yl)-5-(1-(oxetan-3-yl)-1H-indazol-5-yl)pyrazolo[1,5-a]pyrimidin-7(4H)-one], for which the IC50 is at most 10 µM.

Turning to `Cc1csc(-c2cnn3c(=O)cc(-c4ccc(Cl)c(Cl)c4)[nH]c23)n1` [Example 101, 5-(3,4-dichlorophenyl)-3-(4-methylthiazol-2-yl)pyrazolo[1,5-a]pyrimidin-7(4H)-one], the IC50 was at most 10 µM.

In the case of `Cc1cnc(-c2cnn3c(=O)cc(-c4ccc(Cl)c(Cl)c4)[nH]c23)s1` [Example 102, 5-(3,4-dichlorophenyl)-3-(5-methylthiazol-2-yl)pyrazolo[1,5-a]pyrimidin-7(4H)-one], the IC50 was at most 10 µM.

As to `CCCn1ncc2cc(-c3cc(=O)n4ncc(-c5ncc(C)o5)c4[nH]3)ccc21` [Example 103, 3-(5-methyloxazol-2-yl)-5-(1-propyl-1H-indazol-5-yl)pyrazolo[1,5-a]pyrimidin-7(4H)-one], the half-inhibitory concentration (IC50) is at most 10 µM.

For `CCn1nc(C)c2cc(-c3cc(=O)n4ncc(-c5ncc(C)o5)c4[nH]3)ccc21` [Example 105, 5-(1-Ethyl-3-methyl-1H-indazol-5-yl)-3-(5-methyloxazol-2-yl)pyrazolo[1,5-a]pyrimidin-7(4H)-one], the IC50 is at most 10 µM.

As for `Cc1cnc(-c2cnn3c(=O)cc(-c4ccc(Cl)cc4)[nH]c23)s1` [Example 106, 5-(4-Chlorophenyl)-3-(5-methylthiazol-2-yl)pyrazolo[1,5-a]pyrimidin-7(4H)-one], the IC50 is at most 10 µM.

For the compound `Cc1cnc(-c2cnn3c(=O)cc(-c4ccc5c(cnn5C)c4)[nH]c23)o1` [Example 107, 5-(1-Methyl-1H-indazol-5-yl)-3-(5-methyloxazol-2-yl)pyrazolo[1,5-a]pyrimidin-7(4H)-one], the IC50 is at most 10 µM.

`Cn1ncc2cc(-c3cc(=O)n4ncc(C#N)c4[nH]3)ccc21` [Example 108, 5-(1-methyl-1H-indazol-5-yl)-7-oxo-4H,7H-pyrazolo[1,5-a]pyrimidine-3-carbonitrile]: the IC50 was at most 10 µM.

Take `CCn1ncc2ccc(-c3cc(=O)n4ncc(-c5ncco5)c4[nH]3)cc21` [Example 109, 5-(1-ethyl-1H-indazol-6-yl)-3-(oxazol-2-yl)pyrazolo[1,5-a]pyrimidin-7(4H)-one]: the IC50 was at most 10 µM.

Broadly, the IC50 is the concentration that inhibits the measured activity by half.
